Laboratory results as given in US20240287025A1, “TETRAHYDROQUINOLINE (THQ) COUMPOUNDS” (Centre National de la Recherche Scientifique, priority 2021, published 2024).

How the values were obtained:
[1] = target: Brd4 BD1 (Homo sapiens (Human), UniProt O60885); test: HTRF evaluation of bromodomain inhibitors, Brd4 BD1; type: binding; conditions: H4ac4 peptide 50 nM, 4 h at 4° C.
Description: (§1) HTRF reagents and buffers were purchased from Cisbio Bioassays. The assay used a terbium (Ill) cryptate donor reagent conjugated to an anti-GST antibody (MAb anti-GST-Tb; GSTTLA), a streptavidin-conjugated acceptor reagent (streptavidin-d2) and Cisbio proprietary buffers (EPlgeneous Binding Domain Diluent and Detection buffer, respectively). GST-tagged bromodomains (BDs) were expressed in E. coli and purified using standard procedures. Incubation of GST-tagged BDs with biotinylated acetylated H4 peptide (H4K5acK8acK12acK16ac, here named H4ac4) brings the donor and acceptor into close proximity and allows for a FRET reaction. GST-tagged proteins in 25 mM Hepes pH 7.5, 150 mM NaCl, 0.5 mM DTT were assayed at a final concentration of 5 nM. Biotinylated H4ac4 peptides were used at a final concentration of 50, 600 nM in assays involving Brd4 BD1, Brd4 BD2, respectively. The antibody-conjugated donor was used at 0.5 nM and the streptavidin-conjugated acceptor was used at ⅛ of the H4ac4 peptide concentration. Inhibitors were tested by performing an eleven-point dilution series with a maximal final concentration of […]. These concentrations allowed a fixed DMSO concentration at 0.2%, critical for a Z′ factor ≥0.8. Components were incubated at 4° C. for 4 h (BD1) or for 24 h (BD2). Experiments were performed in 384-well white plates (Greiner ref. 781080) and analyzed in a ClarioStar plate reader (BMG LABTECH, excitation at 330 nm and emission at 620 and 665 nm, corresponding to the donor and acceptor emission peaks, respectively; the 665/620 ratio is used to calculate the specific HTRF signal) with an integration delay of 60 μs and an integration time of 400 μs.

[2] = target: Brd4 BD2 (Homo sapiens (Human), UniProt O60885); test: HTRF evaluation of bromodomain inhibitors, Brd4 BD2; type: binding; conditions: for IC50: HTRF, H4ac4 peptide 600 nM, 24 h at 4° C.; for Selectivity BD2/BD1: ratio of the BD1 and BD2 IC50
Description: as §1

C#CCOCCOCCOCCOCCOCc1cn([C@@H]2c3cc(C(=O)OC)ccc3N(C(C)=O)[C@@H](CC)[C@H]2C)nn1 [XS, Methyl-(2S,3R,4S)-4-(4-(2,5,8,11,14-pentaoxaheptadec-16-yn-1-yl)-1H-1,2,3-triazol-1-yl)-1-acetyl-2-ethyl-3-methyl-1,2,3,4-tetrahydroquinoline-6-carboxylate]
IC50 [1]: ~30000 nM | IC50 [2]: 1300 nM | Selectivity BD2/BD1 [2]: 23.1

CC[C@@H]1[C@H](C)[C@@H](n2cc(-c3ccccc3)nn2)c2cc(C(=O)OC)ccc2N1C(C)=O (single isomer, unassigned) [ent-28]
IC50 [1]: > 100000 nM | IC50 [2]: 51400 nM

C=CCCCC(=O)Nc1ccc(-c2ccc3c(c2)[C@H](n2cc(CCCCC)nn2)[C@@H](C)[C@@H](CC)N3C(C)=O)cc1 [ent-XE]
IC50 [1]: > 100000 nM | IC50 [2]: > 100000 nM

C=CCCCC(=O)Nc1ccc(-c2ccc3c(c2)[C@@H](NC(=O)OC(C)C)[C@H](C)[C@H](CC)N3C(C)=O)cc1 [XI, Isopropyl-((2S,3S,4S)-1-acetyl-2-ethyl-6-(4-(hex-5-enamido)phenyl)-3-methyl-1,2,3,4-tetrahydroquinolin-4-yl)carbamate]
IC50 [1]: 2680 nM | IC50 [2]: 2170 nM | Selectivity BD2/BD1 [2]: 1.2

C=CCCCC(=O)Nc1ccc(-c2ccc3c(c2)[C@H](n2cc(-c4ccccc4)nn2)[C@@H](C)[C@@H](CC)N3C(C)=O)cc1 [ent-XD]
IC50 [1]: 2300 nM | IC50 [2]: 677 nM | Selectivity BD2/BD1 [2]: 3.4

CC[C@H]1[C@H](C)[C@@H](n2cc(-c3ccccc3)nn2)c2cc(C(=O)OC)ccc2N1C(C)=O [Compound 31, Methyl-(2S,3S,4R)-1-acetyl-2-ethyl-3-methyl-4-(4-phenyl-1H-1,2,3-triazol-1-yl)-1,2,3,4-tetrahydroquinoline-6-carboxylate]
IC50 [1]: > 200000 nM | IC50 [2]: 14900 nM

C#CCOCCOCc1cn([C@@H]2c3cc(C(=O)OC)ccc3N(C(C)=O)[C@@H](CC)[C@H]2C)nn1 [XP, Methyl-(2S,3R,4S)-1-acetyl-2-ethyl-3-methyl-4-(4-((2-(prop-2-yn-1-yloxy)ethoxy)methyl)-1H-1,2,3-triazol-1-yl)-1,2,3,4-tetrahydroquinoline-6-carboxylate]
IC50 [1]: ~30000 nM | IC50 [2]: 2260 nM | Selectivity BD2/BD1 [2]: 13.2

C#CCOCCOCCOCCOCc1cn([C@@H]2c3cc(C(=O)OC)ccc3N(C(C)=O)[C@@H](CC)[C@H]2C)nn1 [XR, Methyl-(2S,3R,4S)-4-(4-(2,5,8,11-tetraoxatetradec-13-yn-1-yl)-1H-1,2,3-triazol-1-yl)-1-acetyl-2-ethyl-3-methyl-1,2,3,4-tetrahydroquinoline-6-carboxylate]
IC50 [1]: > 100000 nM | IC50 [2]: 2360 nM

CC[C@H]1[C@@H](C)[C@H](N=[N+]=[N-])c2cc(C(=O)OC)ccc2N1C(C)=O [Compound 27, Methyl-(2S,3R,4S)-1-acetyl-4-azido-2-ethyl-3-methyl-1,2,3,4-tetrahydroquinoline-6-carboxylate]
IC50 [1]: 17700 nM | IC50 [2]: 1880 nM | Selectivity BD2/BD1 [2]: 9.4

C=CCCCC(=O)Nc1ccc(-c2ccc3c(c2)[C@@H](n2cc(CCCCC)nn2)[C@H](C)[C@H](CC)N3C(C)=O)cc1 [XE, N-(4-((2S,3R,4S)-1-acetyl-2-ethyl-3-methyl-4-(4-pentyl-1H-1,2,3-triazol-1-yl)-1,2,3,4-tetrahydroquinolin-6-yl)phenyl)hex-5-enamide]
IC50 [1]: 4080 nM | IC50 [2]: 3180 nM | Selectivity BD2/BD1 [2]: 1.3

CC[C@H]1[C@@H](C)[C@H](NC(=O)OC(C)C)c2cc(C(=O)OC)ccc2N1C(C)=O [XJ, Methyl-(2S,3S,4S)-1-acetyl-2-ethyl-4-((isopropoxycarbonyl)amino)-3-methyl-1,2,3,4-tetrahydroquinoline-6-carboxylate]
IC50 [1]: 24200 nM | IC50 [2]: 1880 nM | Selectivity BD2/BD1 [2]: 12.8

CC[C@H]1[C@@H](C)[C@H](n2cc(COCCOCCOCCOCCOCc3cn(C4c5cc(C(=O)OC)ccc5N(C(C)=O)[C@@H](CC)[C@H]4C)nn3)nn2)c2cc(C(=O)OC)ccc2N1C(C)=O (stereo partly drawn) [XX, Dimethyl-4,4′-((2,5,8,11,14-pentaoxapentadecane-1,15-diyl)bis(1H-1,2,3-triazole-4,1-diyl))(2S,2'S,3R,3′R,4S,4'S)-bis(1-acetyl-2-ethyl-3-methyl-1,2,3,4-tetrahydroquinoline-6-carboxylate)]
IC50 [1]: 1470 nM | IC50 [2]: 129 nM | Selectivity BD2/BD1 [2]: 11.5

CC[C@H]1[C@@H](C)C(n2cc(COCCOCc3cn(C4c5cc(C(=O)OC)ccc5N(C(C)=O)[C@@H](CC)[C@H]4C)nn3)nn2)c2cc(C(=O)OC)ccc2N1C(C)=O (stereo partly drawn) [XU, Dimethyl-4,4′-(((ethane-1,2-diylbis(oxy))bis(methylene))bis(1H-1,2,3-triazole-4,1-diyl))(2S,2'S,3R,3′R,4S,4'S)-bis(1-acetyl-2-ethyl-3-methyl-1,2,3,4-tetrahydroquinoline-6-carboxylate)]
IC50 [1]: 247 nM | IC50 [2]: 57 nM | Selectivity BD2/BD1 [2]: 4.3

CC[C@@H]1[C@H](C)[C@@H](NC(=O)OC(C)C)c2cc(C(=O)OC)ccc2N1C(C)=O [ent-XJ]
IC50 [1]: > 100000 nM | IC50 [2]: 17700 nM

CC[C@H]1[C@@H](C)C(n2cc(COCCOCCOCCOCCOCCOCc3cn(C4c5cc(C(=O)OC)ccc5N(C(C)=O)[C@@H](CC)[C@H]4C)nn3)nn2)c2cc(C(=O)OC)ccc2N1C(C)=O (stereo partly drawn) [XY, Dimethyl-4,4′-((2,5,8,11,14,17-hexaoxaoctadecane-1,18-diyl)bis(1H-1,2,3-triazole-4,1-diyl))(2S,2'S,3R,3′R,4S,4'S)-bis(1-acetyl-2-ethyl-3-methyl-1,2,3,4-tetrahydroquinoline-6-carboxylate)]
IC50 [1]: 1560 nM | IC50 [2]: 95 nM | Selectivity BD2/BD1 [2]: 16.4

CC[C@H]1[C@@H](C)[C@H](n2cc(-c3ccccc3)nn2)c2cc(C(F)(F)F)ccc2N1C(C)=O [YC, 1-((2S,3R,4S)-2-Ethyl-3-methyl-4-(4-phenyl-1H-1,2,3-triazol-1-yl)-6-(trifluoromethyl)-3,4-dihydroquinolin-1(2H)-yl)ethan-1-one]
IC50 [2]: 22500 nM

CCCCCc1cn([C@@H]2c3cc(C(F)(F)F)ccc3N(C(C)=O)[C@@H](CC)[C@H]2C)nn1 [YD, 1-((2S,3R,4S)-2-ethyl-3-methyl-4-(4-pentyl-1H-1,2,3-triazol-1-yl)-6-(trifluoromethyl)-3,4-dihydroquinolin-1(2H)-yl)ethan-1-one]
IC50 [1]: 41800 nM | IC50 [2]: 5710 nM | Selectivity BD2/BD1 [2]: 7.3

CC[C@@H]1[C@H](C)[C@@H](N=[N+]=[N-])c2cc(C(=O)OC)ccc2N1C(C)=O (single isomer, unassigned) [ent-27]
IC50 [1]: > 100000 nM | IC50 [2]: > 100000 nM

CC[C@@H]1[C@H](C)[C@@H](Nc2ncc(Cl)cn2)c2cc(C(=O)OC)ccc2N1C(C)=O [ent-XL]
IC50 [1]: > 100000 nM | IC50 [2]: 7440 nM

CC[C@H]1[C@@H](C)[C@H](N=[N+]=[N-])c2cc(-c3ccc(NC(=O)CCCCCCC(=O)NO)cc3)ccc2N1C(C)=O [YH, N-(4-((2S,3R,4S)-1-acetyl-4-azido-2-ethyl-3-methyl-1,2,3,4-tetrahydroquinolin-6-yl)phenyl)-N-hydroxyoctanediamide]
Selectivity BD2/BD1 [2]: 1.6

C=CCCCC(=O)Nc1ccc(-c2ccc3c(c2)[C@@H](Nc2ncc(Cl)cn2)[C@H](C)[C@H](CC)N3C(C)=O)cc1 [XK, N-(4-((2S,3S,4S)-1-acetyl-4-((5-chloropyrimidin-2-yl)amino)-2-ethyl-3-methyl-1,2,3,4-tetrahydroquinolin-6-yl)phenyl)hex-5-enamide]
IC50 [1]: 3140 nM | IC50 [2]: 1330 nM | Selectivity BD2/BD1 [2]: 2.4

CC[C@H]1[C@@H](C)[C@H](n2nnc3c2CCC2C(CO)C2CC3)c2cc(C(=O)OC)ccc2N1C(C)=O (stereo partly drawn) [YI, Methyl-(2S,3R,4S)-1-acetyl-2-ethyl-4-(6-(hydroxymethyl)-5,5a,6,6a,7,8-hexahydrocyclopropa[5,6]cycloocta[1,2-d][1,2,3]triazol-1(4H)-yl)-3-methyl-1,2,3,4-tetrahydroquinoline-6-carboxylate]
IC50 [1]: 33600 nM | IC50 [2]: 798 nM | Selectivity BD2/BD1 [2]: 42.1

C=CCCCC(=O)Nc1ccc(-c2ccc3c(c2)[C@H](Nc2ncc(Cl)cn2)[C@@H](C)[C@@H](CC)N3C(C)=O)cc1 [ent-XK]
IC50 [1]: 6090 nM | IC50 [2]: 2020 nM | Selectivity BD2/BD1 [2]: 3.0

CC[C@H]1[C@@H](C)[C@H](n2cc(COCCOCCOCCOCCOCCOCC#Cc3cccc4c3CN(C3CCC(=O)NC3=O)C4=O)nn2)c2cc(C(=O)OC)ccc2N1C(C)=O (stereo partly drawn) [YG, Methyl-(2S,3R,4S)-1-acetyl-4-(4-(20-(2-(2,6-dioxopiperidin-3-yl)-1-oxoisoindolin-4-yl)-2,5,8,11,14,17-hexaoxaicos-19-yn-1-yl)-1H-1,2,3-triazol-1-yl)-2-ethyl-3-methyl-1,2,3,4-tetrahydroquinoline-6-carboxylate]
IC50 [1]: > 20000 nM | IC50 [2]: 1360 nM
